Reference: patent publication US10132029B2, “Method for reducing adhesion of microorganisms to fabrics” (priority 2013, dated 2018)
Where two headings read alike, the source gives them in different places.

Assays:
P. aeruginosa DSMZ 1117 = type: cell-based, Pseudomonas aeruginosa; details: for Reduction in adhered bacteria [%]: P. aeruginosa, polyester; for Reduction in adhered bacteria [%] P. aeruginosa: polyester fabric, application concentration 0.1 wt %, commercial product applied directly by padding, relative to uncoated fabric
Protocol: Circular fabric samples with a diameter of 0.6 cm were punched from coated and uncoated cotton and polyester fabrics. The fabric samples were fixed to a microtiter plate. The fabric samples were washed with acetone and sterilized with UV light for 60 minutes.
The strains were coated fresh from glycerol bacterial cultures onto tryptic soy agar (TSA). Incubation took place overnight at 33° C. The nutrient medium prepared was a tryptic soy broth (TSB), with 30% of the amount recommended by the manufacturer, supplemented with 0.25% of glucose. […] The nutrient medium was inoculated with the bacterial cultures and after inoculation was cultivated overnight at 37° C. and 160 rpm.
The resulting overnight cultures were centrifuged at 8500 g for 15 minutes and washed with 50 ml of isotonic saline solution (0.9 wt %). Bacterial suspensions in isotonic saline solutions were prepared. The optical density of the various bacterial suspensions was determined at 595 nm and adjusted to a level of about 1.2.
50 μl of the final microorganism suspension in isotonic saline solution (0.9 wt %) prepared as described under 2.2 were added to the coated and uncoated fabric samples fixed on the microtiter plate (see 2.1). The microtiter plates were closed and sealed off with Parafilm. The microtiter plates were placed in an antievaporation box and incubated at 33° C. for 2 h and at 40 rpm. The expected colony-forming unit count (CFU) of the inoculum at the start was 10^6-10^7 CFU/ml.
After the biofilm had formed, the planctonic cells were removed and used as a sample for determining the optical density at 595 nm. For this purpose, the samples were made up to a volume of 150 μl, and 100 μl were withdrawn for the optical density determination in a photometer. […] Through the determination of the planctonic cells after the formation of biofilm, the amount of bacteria available for adhesion was monitored.
The fabric samples and the resulting biofilm were washed three times with 200 to 300 μl of isotonic saline solution.
The fabric samples obtained under 2.4 (after formation of biofilm) were placed together with 100 μl of isotonic saline solution into wells of a 96-well microtiter plate.
Investigations into the removal of the adhered microorganisms from the fabric surfaces were carried out with vortexing, ultrasound, with enzymatic treatment, or with combinations thereof. Treatment in the vortex amounted to 5 minutes and was performed horizontally. The ultrasound treatment was carried out in an ultrasound bath for 5 minutes. For the enzymatic removal, the fabric samples were treated with enzymes, such as trypsin or a mixture of different enzymes, for example, during incubation at 37° C. for 1 hour.
Following removal of the adhered bacteria, the fabric samples were removed from the microtiter plates.
The number of removed bacteria in the resulting suspension was determined by staining with Syto9 and fluorescence measurement (fluorescence filter with excitation at 485/20 nm and emission at 528/20 nm) or by staining with BacTiterGlo and bioluminescence measurement. Furthermore, it is possible to determine the number of adhered and removed microorganisms by means of protein assay (e.g., BCA assay, Bradford Assay) or optical density proliferation assay.
The relative variables (e.g., fluorescence units (RFU)) concerning the coated and uncoated fabrics were compared, allowing the reduction in adhered bacteria in % to be determined in accordance with the following formula: Reduction in adhered bacteria[%]=[(RFUuc−RFUuc)/RFUuc]*100 where • RFUuc=relative fluorescence units of the removed bacteria of the uncoated substrate • RFUc=relative fluorescence units of the removed bacteria of the coated substrate
The commercial products described in example 1 were applied directly by a padding method to polyester fabric samples.
Bacterial adhesion to the polyester fabric samples was investigated using the microtiter plate Syto9 assay, as described in example 2.

Staphylococcus aureus [1] = assay: Antimicrobial activity of coated polyester fabric samples as per JIS L 1902; type: cell-based; details: for Antimicrobial activity[log] Unwashed: 18 hours at 37° C.
Protocol: The procedure here is that the fabric sample was inoculated with a defined amount of a microbial suspension (inoculum). Test specimens with a weight of approximately 0.4 g were investigated in a triplicate determination.
The inoculated fabric sample was incubated in a closed system at 37° C. over a period of 18 hours. Following incubation, the bacteria of a defined amount of a dilution solution were recorded. The difference in the bacterial count of the fabric sample at 0 hours in comparison to the fabric sample after 18 hours served as a basis for evaluation. The antimicrobial activity is reported as a logarithmic or percentage value. Here, a reduction in the microbe count of 0% corresponds to inadequate antimicrobial action, a microbe reduction in the range from 0.1 to less than 90% to an inadequate antibacterial action, and a microbe reduction of greater than 90% to a good antibacterial action.

Staphylococcus aureus [2] = type: cell-based; details: for Reduction in cell count relative to control [%] S. aureus: coated glass slide vs uncoated glass control K; for Cell count [1/cm^2] S. aureus: glass slide coated from 0.1% strength solution, bacterial suspension 10^9 microbes/ml, 30 measuring windows
From the text: Silane derivatives S1, S3, S4 and S5 as identified above in example 1 were used to produce coatings on glass slides. As a control (comparison sample) K, an uncoated glass slide cleaned with isopropanol was used.
For the coating of the slides they were immersed for 60 seconds into a 0.1% strength solution of the corresponding silane derivative in ethanol/water as solvent with a water fraction of 5%. The solutions had been adjusted with acetic acid beforehand to a pH in the range from 4 to 5. The wetted slides were subsequently dried at 160° C. for 1 hour.
The slides wetted with the bacterial suspension were analyzed by microscope to determine the adhering bacteria. […] The fluorescent dye used was DAPI (4′,6-diamidine-2-phenylindole), which binds to DNA and fluoresces under UV excitation. In order to determine the adhesion characteristics, the cell counts per cm^2 were ascertained in 30 measuring windows, and the adhesion pattern was evaluated. Cell attachment was evaluated on an Olympus IX 51 using the Labflow AnalySIS image processing program.
Bacterial suspensions produced and used were suspensions of test cultures of the strains Staphylococcus aureus and Escherichia coli. The concentration of the bacterial suspension was 10^9 microbes/ml.

[3] = coating concentration 0.001 %, wash pretreatment (A) unwashed
[4] = coating concentration 0.001 %, wash pretreatment (B) washed twice at 30° C. only with water
[5] = coating concentration 0.001 %, wash pretreatment (C) washed once at 30° C. EN ISO 6330 method 8A with ECE B detergent
[6] = coating concentration 0.01 %, wash pretreatment (A) unwashed
[7] = coating concentration 0.01 %, wash pretreatment (B) washed twice at 30° C. only with water
[8] = coating concentration 0.01 %, wash pretreatment (C) washed once at 30° C. EN ISO 6330 method 8A with ECE B detergent
[9] = coating concentration 0.1 %, wash pretreatment (A) unwashed
[10] = coating concentration 0.1 %, wash pretreatment (B) washed twice at 30° C. only with water
[11] = coating concentration 0.1 %, wash pretreatment (C) washed once at 30° C. EN ISO 6330 method 8A with ECE B detergent
[12] = coating concentration 0.001 % based on fabric
[13] = coating concentration 0.01 % based on fabric
[14] = coating concentration 0.1 % based on fabric

Compound | Reduction in adhered bacteria [%] (P. aeruginosa DSMZ 1117; [3]) | Reduction in adhered bacteria [%] (P. aeruginosa DSMZ 1117; [4]) | Reduction in adhered bacteria [%] (P. aeruginosa DSMZ 1117; [5]) | Reduction in adhered bacteria [%] (P. aeruginosa DSMZ 1117; [6]) | Reduction in adhered bacteria [%] (P. aeruginosa DSMZ 1117; [7]) | Reduction in adhered bacteria [%] (P. aeruginosa DSMZ 1117; [8]) | Reduction in adhered bacteria [%] (P. aeruginosa DSMZ 1117; [9]) | Reduction in adhered bacteria [%] (P. aeruginosa DSMZ 1117; [10]) | Reduction in adhered bacteria [%] (P. aeruginosa DSMZ 1117; [11]) | Reduction in adhered bacteria [%] P. aeruginosa (P. aeruginosa DSMZ 1117) | Antimicrobial activity[log] Unwashed (Staphylococcus aureus [1]; [12]) | Antimicrobial activity[log] Washed once at 30° C., without detergent (Staphylococcus aureus [1]; [12]) | Antimicrobial activity[log] Washed twice with water (Staphylococcus aureus [1]; [12]) | Antimicrobial activity[log] Unwashed (Staphylococcus aureus [1]; [13]) | Antimicrobial activity[log] Washed once at 30° C., without detergent (Staphylococcus aureus [1]; [13]) | Antimicrobial activity[log] Washed twice with water (Staphylococcus aureus [1]; [13]) | Antimicrobial activity[log] Unwashed (Staphylococcus aureus [1]; [14]) | Antimicrobial activity[log] Washed once at 30° C., without detergent (Staphylococcus aureus [1]; [14]) | Antimicrobial activity[log] Washed twice with water (Staphylococcus aureus [1]; [14]) | Reduction in cell count relative to control [%] S. aureus (Staphylococcus aureus [2]) | also measured
N-(triethoxysilylpropyl)-O-polyethylene oxide-urethane, (4-6 EO units) [S3] | 63% | 46% | 69% | 65% | 37% | 71% | 85% | 36% | 76% | 48% | −0.5 log | −0.8 log | −0.3 log | −0.1 log | −0.1 log | 0.8 log | 0.0 log | −0.4 log | 0.3 log | 83% | adhesion of S. aureus to coated glass, assessment in words (Staphylococcus aureus [2]; coated glass slides): Very good results; Cell count [1/cm^2] S. aureus (Staphylococcus aureus [2]): 77 000 1/cm^2
CO[Si](CCCN(CCN(CC(=O)[O-])CC(=O)[O-])CC(=O)[O-])(OC)OC.[Na+].[Na+].[Na+] [S5, N-(trimethoxysilylpropyl)ethylenediaminetriacetyl acid, trisodium salt] | 81% | 42% | 77% | 78% | 54% | 73% | 68% | 69% | 67% | 17% | 0.5 log | −0.3 log | 0.9 log | −0.3 log | −0.6 log | −0.2 log | −0.5 log | −0.6 log | −0.4 log | 52% | Cell count [1/cm^2] S. aureus (Staphylococcus aureus [2]): 219 000 1/cm^2
